For 19 compounds, GI50 and TGI results are on record in PubChem BioAssay (NCI).

Values joined by “and” are separate entries in the source; they are usually repeats but may differ in a detail not shown here. Identical values can stand only once.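 Dose response: 5 concentrations. Exposure: 48 h. Format: 96-well plates. Endpoint: linear interpolation; highest concentration if not reached. The concentration for 50% growth inhibition is given as GI50. At the TGI there is no net growth.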 Bounds are passed on as bounds.

What all share (test): NCI anticancer screen, dose series, 48 h
Assay [1] concerns NCI-H226 lung.
For assay [2], the system named is SK-MEL-28 melanoma.
Assay [3] relates to HCT-116 colon.
Assay [4] concerns KM12 colon.
Assay [5] concerns RXF 393 renal.
Assay [6] has as its system SF-268 CNS.
In assay [7] the test system is ACHN renal.
Assay [8] has as its system SN12C renal.
Assay [9] relates to MALME-3M melanoma.
The test system of assay [10] is UO-31 renal.

As to `CCOC(=O)c1sc(NC(=O)COc2ccc(/C=C3\CCc4cc(OC)ccc4C3=O)cc2)nc1C`, the GI50 was 13.3 µM in assay [1]; 14.6 µM in [2]; 12.9 µM in assay [3]; 7.13 µM in [4]; 12 µM in assay [5]; 11.4 µM in assay [6]. The GI50 in [7] was 13.8 µM; in assay [8], 4.66 µM; in assay [9], 1.13 µM; in [10], 1.78 µM. The TGI came to 27.3 µM in assay [1]; 27.7 µM in [2]; 25.6 µM in assay [3]; 21.5 µM in [4]; 29.3 µM in [5]; 26.5 µM in assay [6]. Besides, the TGI came out at 32.5 µM in assay [7], 21 µM in [8], 12.6 µM in assay [9] and 9.64 µM in assay [10].
Consider `Cc1nc(Nc2ccc(Cl)cc2)sc1C(=O)Nc1cccc2c(=O)[nH][nH]c(=O)c12`, for which the TGI in assay [1] was greater than 100 µM; in [2], greater than 100 µM; in assay [3] it was greater than 100 µM; in assay [4], greater than 100 µM; in assay [5], 69.2 µM; in assay [6] it was greater than 100 µM. Also, the TGI in assay [7] was greater than 100 µM; in assay [8], greater than 100 µM; in [9], 80.3 µM; in assay [10], greater than 100 µM.
`COc1cc(N)c(Cl)cc1C(=O)N[C@@H]1CCN(CCCOc2ccc(F)cc2)C[C@@H]1OC`: the GI50 was greater than 100 µM in [1]; greater than 100 µM in assay [2]; 41.8 µM in [3]; 33.3 µM in assay [4]; greater than 100 µM in assay [5]; greater than 100 µM in assay [6]. For the same compound, the GI50 is greater than 100 µM in assay [7], greater than 100 µM in [8], greater than 100 µM in [9] and 27.9 µM in [10]. Also, the TGI in assay [1], in assay [2], in [3], in assay [4], in [5] and in assay [6] was greater than 100 µM in each case. The TGI in assay [7], in assay [8], in assay [9] and in assay [10] was greater than 100 µM in each case.
Turning to `O=C(O)C1CC2C=CCC(C2)C1` (stereo not drawn), the TGI in assay [1], in assay [2], in assay [3], in assay [4], in [5] and in assay [6] was greater than 100 µM each time. In addition, the TGI in [7], in [9] and in assay [10] was greater than 100 µM throughout.
`CCNC(=O)COc1ccc(Cl)c(C)c1`: the TGI in [1], in assay [2], in assay [3], in assay [4], in assay [5] and in assay [6] was greater than 100 µM in each case. For the same compound, the TGI in assay [7], in [8], in assay [9] and in assay [10] was greater than 100 µM in each case.
With `CN(C)CCN=c1nc2c(c(N)n1-c1ccccc1)c(=S)n(-c1ccccc1)c(=S)n2-c1ccccc1`, the GI50 in assay [1] is 13 µM; in assay [2], 0.867 µM; in assay [3], 2.24 µM; in assay [4], 3.8 µM; in [5] it was 2.62 µM; in assay [6], 3.34 µM. Moreover, the GI50 in assay [7] was 2.89 µM; in assay [8], 6.21 µM; in assay [9], 2.04 µM; in assay [10], 1.48 µM. Moreover, the TGI came to 27.6 µM in [1]; 2.33 µM in assay [2]; 9.38 µM in [3]; 14.2 µM in [4]; 7.8 µM in assay [5]; 15.1 µM in assay [6]. For the same compound, the TGI in [7] was 9.71 µM; in [8], 20.5 µM; in assay [9], 3.93 µM; in assay [10], 3.83 µM.
For the compound `COc1ccc2c(CN3CCCC[C@H]3O)cc3cc4c(cc3c2c1)OCO4`, the GI50 was 0.251 µM in [1]; 0.329 µM in assay [2]; 0.223 µM in assay [3]; 0.48 µM in [4]; 0.191 µM in assay [5]; 0.417 µM in [6]. Besides, the GI50 in assay [7] is 0.222 µM; in assay [8], 0.326 µM; in [9], 0.218 µM; in [10], 0.31 µM. Besides, the TGI worked out at 0.589 µM in assay [1]; 1.31 µM in assay [2]; 10.7 µM in assay [3]; 5.22 µM in assay [4]; 0.95 µM in [5]; 5.74 µM in [6]. Also, the TGI is 2.36 µM in assay [7], 4.06 µM in assay [8], 0.61 µM in assay [9] and 5.67 µM in assay [10].
With `CC(C)(O)c1cc(Nc2cc(Oc3cn(C4CC4)nc3C3CCOCC3)ccn2)ccn1`, the GI50 in assay [1] was greater than 100 µM; in assay [2], greater than 100 µM; in assay [3], 36.2 µM; in [4], greater than 100 µM; in assay [5], 68.4 µM; in assay [6] it was greater than 100 µM. In addition, the GI50 was greater than 100 µM in assay [7], greater than 100 µM in assay [8], greater than 100 µM in [9] and 54 µM in assay [10]. The TGI in assay [1], in [2], in [3], in assay [4], in assay [5] and in assay [6] was greater than 100 µM each time. Further, the TGI in assay [7], in [8], in assay [9] and in assay [10] was greater than 100 µM throughout.
Take `CN(Cc1cnc2nc(N)nc(N)c2n1)c1c(Cl)cc(C(=O)NC(CCC(=O)O)C(=O)O)cc1Cl` (stereo not drawn): the GI50 in assay [1] was 0.0745 µM; in assay [2], 0.313 µM; in assay [3], less than 0.01 µM; in assay [4], less than 0.0137 µM; in assay [5], 0.731 µM; in [6], less than 0.0169 µM. In addition, the GI50 in assay [7] is less than 0.01 µM; in [8], less than 0.01 µM; in assay [9] it was 81.4 µM; in [10], less than 0.01 µM. For the same compound, the TGI in [1], in assay [2], in assay [3], in assay [4], in assay [5] and in [6] was greater than 100 µM throughout. Further, the TGI in [7], in assay [8], in assay [9] and in [10] was greater than 100 µM throughout.
Take `CCS(=O)(=O)c1cccc(-c2cc(C(=O)NC3CCN(C)CC3)c(C)c3[nH]c4ncc(C)cc4c23)c1`: the GI50 in assay [1] was 0.372 µM and 0.714 µM; in [2] it was 0.834 µM and 0.566 µM; in assay [3], 0.128 µM and 0.0788 µM; in assay [4] it was 0.0954 µM and 0.0478 µM; in [5], 0.957 µM and 0.512 µM; in [6], 0.332 µM and 0.245 µM. The GI50 in assay [7] is 9.87 µM and 2.64 µM; in assay [8] it was 0.283 µM and 0.272 µM; in [9], 0.843 µM and 0.571 µM; in assay [10], > 5.3 µM and 6.65 µM. The TGI in [1] was 3.83 µM and 5.2 µM; in assay [2], 6.53 µM and 5.09 µM; in assay [3] it was 2.66 µM and 5.4 µM; in [4] it was 1.51 µM and 1.86 µM; in assay [5] it was 3.11 µM and 1.56 µM; in assay [6], 2.19 µM and 1.1 µM. The TGI in [7] was > 10 µM and 10.6 µM; in [8], 3.88 µM and 11.3 µM; in [9] it was 4.13 µM and 3.22 µM; in assay [10] it was > 10 µM and 26.4 µM.
With `CSCc1ncc(-c2ccc(C(F)(F)F)cc2)c(NC2CCCCCC2)n1`, the GI50 in [1], in assay [2], in [3], in [4], in assay [5] and in [6] was greater than 10 µM each time. For the same compound, the GI50 in assay [7], in assay [8], in [9] and in [10] was greater than 10 µM throughout. Moreover, the TGI in assay [1], in [2], in assay [3], in assay [4], in assay [5] and in assay [6] was greater than 10 µM each time. The TGI in assay [7], in assay [8], in assay [9] and in [10] was greater than 10 µM each time.
As for `Cc1cc(C)nc(NC(=O)COc2ccc(Cl)cc2)c1`, the TGI in assay [1], in assay [2], in assay [3], in [4], in assay [5] and in [6] was greater than 100 µM throughout. The TGI in assay [7], in [8] and in assay [9] was greater than 100 µM each time.
For the compound `Nc1ccccc1SC(/C=C/NNC1=NC(c2ccccc2)C(c2ccccc2)=NN1)c1ccccc1` (stereo not drawn), the TGI came out at 30.4 µM in assay [1]; 27 µM in assay [2]; 29.1 µM in [4]; 27.1 µM in [5]; 17.1 µM in [6]; 28.6 µM in assay [7]. Further, the TGI in assay [8] was 31.5 µM; in [9], 30.1 µM; in assay [10], 18.4 µM.
As for `CCOC(=O)NN1C(=O)C(=P(c2ccccc2)(c2ccccc2)c2ccccc2)C(C(=O)OC)=C1C`, the TGI in [1], in assay [3], in assay [4], in assay [5], in assay [6] and in assay [7] was greater than 100 µM throughout. Moreover, the TGI in assay [8], in [9] and in assay [10] was greater than 100 µM in each case.
As to `CCCCC[C@H]1C/C=C2/C(=O)C=C[C@@H]2C/C=C\CCCC(=O)O1`, the GI50 in assay [1] was 0.0904 µM; in assay [2] it was 0.155 µM; in assay [3], 0.0905 µM; in assay [5], 0.0944 µM; in [6], 0.19 µM; in [7], 0.0987 µM. For the same compound, the results for the GI50 in assay [8], in assay [9] and in assay [10] were 0.18 µM, 0.5 µM and 0.0902 µM, respectively. The TGI in assay [1] turned out to be 0.18 µM; in [2], 0.705 µM; in [3], 0.232 µM; in [5], 0.223 µM; in assay [6] it was 5.94 µM; in [7] it was 0.202 µM. In addition, the TGI in assay [8] worked out at 2.44 µM; in assay [9], 5.02 µM; in [10] it was 0.171 µM.
As to `O=C(CC1(O)CCCCC1)OC1CCCC1`, the TGI in assay [1], in assay [3], in assay [4], in assay [5], in assay [6] and in assay [7] was greater than 100 µM each time. Besides, the TGI in assay [8], in assay [9] and in assay [10] was greater than 100 µM throughout.
As for `O=C(O)CCN1C(=S)CSC1=S`, the TGI in assay [1], in [2], in assay [3], in [4], in [5] and in [6] was greater than 100 µM in each case. In addition, the TGI in assay [7], in assay [8] and in assay [9] was greater than 100 µM in each case.
With `COc1ccc(CN2c3ccccc3Sc3ccccc32)cc1O`, the GI50 in [1] was 12.2 µM; in assay [2], 14.4 µM; in [3] it was 0.386 µM; in assay [5], 0.338 µM; in [6], 0.966 µM; in [7] it was 1.56 µM. Moreover, the GI50 in assay [8] was 1.29 µM; in assay [9] it was 12.1 µM; in [10] it was 0.751 µM. Also, the TGI in assay [1] came out at 35 µM; in assay [2], 32.2 µM; in assay [3] it was 13.1 µM; in assay [5], 15.6 µM; in [6] it was 20.5 µM; in [7] it was 21.8 µM. In addition, the TGI in assay [8] amounted to 22.3 µM; in [9], 28.1 µM; in assay [10], 18.9 µM.
Take `CN(C)C(=S)/N=c1\ssc(=Nc2ccccc2)n1-c1ccccc1`: the TGI in assay [1] was 26.7 µM; in assay [2], greater than 100 µM; in [5], 44.3 µM; in [6] it was 98.2 µM; in assay [7] it was greater than 100 µM; in [8], greater than 100 µM. The TGI in assay [9] and in assay [10] was greater than 100 µM throughout.
